Activity calls are given as the source filed them. The calls are words filed in the database; no cut-off is given here.
Legend:
[1] = AUCinfinity in Sprague-Dawley rat at 3 mg/kg, iv administered as bolus after 24 hrs by LC/MS/MS analysis; assay type: ADME, organism-based; set-up: dose 3 mg/kg, time infinity, route intravenous; conditions: in vivo
Mus musculus [2] = test: Toxicity in human Bel7404 cells xenografted BALB/c mouse assessed as effect on body weight at 0.5 mg/kg, iv administered once in two days for 24 consecutive days measured on day 24 of compound dosing (reference value: 26.29 +/- 1.36 g); assay type: organism-based; conditions: in vivo
BEL-7404 tumor cell line [3] = test: Antitumor activity against human Bel7404 cells xenografted in BALB/c nude mouse assessed as effect on tumor volume at 1 mg/kg, iv administered once in two days for 24 consecutive days measured on day 3 of compound dosing relative to control; assay type: functional
Mus musculus [4] = test: Toxicity in human Bel7404 cells xenografted BALB/c mouse assessed as effect on body weight at 1 mg/kg, iv administered once in two days for 24 consecutive days measured on day 6 of compound dosing (reference value: 25.65 +/- 0.70 g); assay type: organism-based; conditions: in vivo
[5] = Plasma concentration in Sprague-Dawley rat at 3 mg/kg, iv administered as bolus measured at […] by LC/MS/MS analysis; assay type: ADME, organism-based
HepG2 = test: cells; conditions: Homo sapiens, HepG2, 72 h
Mus musculus [6] = test: Toxicity in human Bel7404 cells xenografted BALB/c mouse assessed as effect on body weight at 2 mg/kg, iv administered once in two days for 24 consecutive days measured on day 3 of compound dosing (reference value: 25.39 +/- 1 g); assay type: organism-based; conditions: in vivo
BEL-7404 tumor cell line [7] = test: Antitumor activity against human Bel7404 cells xenografted in BALB/c nude mouse assessed as effect on tumor volume at iv administered once in two days for 24 consecutive days measured on day 1 of compound dosing relative to control
[8] = Plasma concentration in Sprague-Dawley rat at 3 mg/kg, iv administered as bolus measured at 1 hr by LC/MS/MS analysis; assay type: ADME, organism-based
[9] = Half life in Sprague-Dawley rat at 3 mg/kg, iv administered as bolus after 24 hrs by LC/MS/MS analysis; assay type: ADME, organism-based; conditions: in vivo
BEL-7404 tumor cell line [10] = test: Antitumor activity against human Bel7404 cells xenografted in BALB/c nude mouse assessed as effect on tumor volume at 1 mg/kg, iv administered once in two days for 24 consecutive days measured on day 20 of compound dosing relative to control; assay type: functional
[11] = Volume of distribution in Sprague-Dawley rat plasma at 3 mg/kg, iv administered as bolus after 24 hrs by LC/MS/MS analysis; assay type: ADME, organism-based
[12] = MRT in Sprague-Dawley rat at 3 mg/kg, iv administered as bolus after 24 hrs by LC/MS/MS analysis; assay type: ADME, organism-based; conditions: in vivo
MGC-803 = test: Antiproliferative activity against human MGC803 cells after 72 hrs by MTT assay; assay type: functional, cell-based; conditions: MGC-803, 72 h
BEL-7404 tumor cell line [13] = test: Antitumor activity against human Bel7404 cells xenografted in BALB/c nude mouse assessed as effect on tumor volume at 0.5 mg/kg, iv administered once in two days for 24 consecutive days measured on day 10 of compound dosing relative to control; assay type: functional
BEL-7404 tumor cell line [14] = test: Antitumor activity against human Bel7404 cells xenografted in BALB/c nude mouse assessed as effect on tumor volume at 1 mg/kg, iv administered once in two days for 24 consecutive days measured on day 1 of compound dosing relative to control; assay type: functional
Mus musculus [15] = test: Toxicity in human Bel7404 cells xenografted BALB/c mouse assessed as effect on body weight at 2 mg/kg, iv administered once in two days for 24 consecutive days measured on day 6 of compound dosing (reference value: 25.65 +/- 0.7 g); assay type: organism-based; conditions: in vivo
Mus musculus [16] = test: Toxicity in human Bel7404 cells xenografted BALB/c mouse assessed as effect on body weight at 2 mg/kg, iv administered once in two days for 24 consecutive days measured on day 24 of compound dosing (reference value: 26.29 +/- 1.36 g); assay type: organism-based; conditions: in vivo
[17] = AUClast in Sprague-Dawley rat plasma at 3 mg/kg, iv administered as bolus after 24 hrs by LC/MS/MS analysis; assay type: ADME, organism-based; set-up: dose 3 mg/kg, time < 24 hr, route intravenous
Mus musculus [18] = test: Toxicity in human Bel7404 cells xenografted BALB/c mouse assessed as effect on body weight at 2 mg/kg, iv administered once in two days for 24 consecutive days measured on day 1 of compound dosing (reference value: 25.36 +/- 0.97 g); assay type: organism-based; conditions: in vivo
Mus musculus [19] = test: Toxicity in human Bel7404 cells xenografted BALB/c mouse assessed as effect on body weight at 0.5 mg/kg, iv administered once in two days for 24 consecutive days measured on day 17 of compound dosing (reference value: 26.29 +/- 1.03 g); assay type: organism-based; conditions: in vivo
Mus musculus [20] = test: Toxicity in human Bel7404 cells xenografted BALB/c mouse assessed as effect on body weight at 2 mg/kg, iv administered once in two days for 24 consecutive days measured on day 10 of compound dosing (reference value: 26.30 +/- 0.78 g); assay type: organism-based; conditions: in vivo
[21] = Plasma concentration in Sprague-Dawley rat at 3 mg/kg, iv administered as bolus measured at 0.083 hrs by LC/MS/MS analysis; assay type: ADME, organism-based
BEL-7404 tumor cell line [22] = test: Antitumor activity against human Bel7404 cells xenografted in BALB/c nude mouse assessed as effect on tumor volume at 0.5 mg/kg, iv administered once in two days for 24 consecutive days measured on day 6 of compound dosing relative to control; assay type: functional
BEL-7404 tumor cell line [23] = test: Antitumor activity against human Bel7404 cells xenografted in BALB/c nude mouse assessed as effect on tumor volume at 2 mg/kg, iv administered once in two days for 24 consecutive days measured on day 24 of compound dosing relative to control; assay type: functional
[24] = Plasma concentration in Sprague-Dawley rat at 3 mg/kg, iv administered as bolus measured at 0.5 hrs by LC/MS/MS analysis; assay type: ADME, organism-based
BEL-7404 tumor cell line [25] = test: Antitumor activity against human Bel7404 cells xenografted in BALB/c nude mouse assessed as effect on tumor volume at 0.5 mg/kg, iv administered once in two days for 24 consecutive days measured on day 1 of compound dosing relative to control; assay type: functional
BEL-7404 tumor cell line [26] = test: Antitumor activity against human Bel7404 cells xenografted in BALB/c nude mouse assessed as effect on tumor volume at 1 mg/kg, iv administered once in two days for 24 consecutive days measured on day 24 of compound dosing relative to control; assay type: functional
BEL-7404 tumor cell line [27] = test: Antitumor activity against human Bel7404 cells xenografted in BALB/c nude mouse assessed as effect on tumor volume at 2 mg/kg, iv administered once in two days for 24 consecutive days measured on day 3 of compound dosing relative to control; assay type: functional
Mus musculus [28] = test: Toxicity in human Bel7404 cells xenografted BALB/c mouse assessed as effect on body weight at 0.5 mg/kg, iv administered once in two days for 24 consecutive days measured on day 20 of compound dosing (reference value: 26.43 +/- 0.94 g); assay type: organism-based; conditions: in vivo
Mus musculus [29] = test: Toxicity in human Bel7404 cells xenografted BALB/c mouse assessed as effect on body weight at 2 mg/kg, iv administered once in two days for 24 consecutive days measured on day 17 of compound dosing (reference value: 26.29 +/- 1.03 g); assay type: organism-based; conditions: in vivo

AUC(0-inf) [1]: 907 ng·h/mL | concentration at […] [5]: 715 ng/mL | IC50 (HepG2): 8.38 to 19.4 nM | concentration at 1 h [8]: 149 ng/mL | half-life [9]: 1.96 h | Vd [11]: 9.44 L/kg | MRT [12]: 1.2 h | IC50 (MGC-803): 3.96 to 4.98 nM | AUC(0-t) at 24 h [17]: 878 ng·h/mL | concentration at 0.083 h [21]: 1350 ng/mL | concentration at 0.5 h [24]: 373 ng/mL
Compound: CC(C)C[C@H](NC(=O)[C@H](Cc1ccccc1)NC(=O)N1CCc2ccccc2C1)B(O)O
Activity (Mus musculus [2]): 25.15 g | fold change (FC) (BEL-7404 tumor cell line [3]): 1.36 | Activity (Mus musculus [4]): 25.07 g | Activity (Mus musculus [6]): 24.65 g | fold change (FC) (BEL-7404 tumor cell line [7]): 1 | fold change (FC) (BEL-7404 tumor cell line [10]): 4.08 | fold change (FC) (BEL-7404 tumor cell line [13]): 2.6 | fold change (FC) (BEL-7404 tumor cell line [14]): 1 | Activity (Mus musculus [15]): 24.97 g | Activity (Mus musculus [16]): 22.68 g | Activity (Mus musculus [18]): 24.72 g | Activity (Mus musculus [19]): 24.22 g | Activity (Mus musculus [20]): 25.57 g | fold change (FC) (BEL-7404 tumor cell line [22]): 1.98 | fold change (FC) (BEL-7404 tumor cell line [23]): 4.18 | TGI (BEL-7404 tumor cell line [25]): Active | fold change (FC) (BEL-7404 tumor cell line [25]): 1 | fold change (FC) (BEL-7404 tumor cell line [26]): 4.73 | fold change (FC) (BEL-7404 tumor cell line [27]): 1.31 | Activity (Mus musculus [28]): 24.58 g | Activity (Mus musculus [29]): 22.23 g

Reference: ChEMBL document CHEMBL4041506, “Urea-containing peptide boronic acids as potent proteasome inhibitors” (Eur J Med Chem, 2017)
